Test results from patent US4942170A, “2-(substituted methylidene)-N-[3-[piperidin-1-yl]propyl]hydrazine carboximidamides useful as antiparasitics” (The Rockefeller University, priority 1988, dated 1990).
Where a name gives a salt, the structure may show the parent alone. Read-outs that look alike come from different tables or passages of the source.

How the values were obtained:
[1] = system: Trypanosoma cruzi Strain Y trypomastigotes; test: Trypanocidal assay: trypomastigotes pre-incubated with test compound, then added to HSVSM cell culture; format: cell-based; details: for percent of cells infected relative to untreated control at 0.5 µM / percent of cells infected relative to untreated control at 1 µM / percent of cells infected relative to untreated control at 5 µM / percent of cells infected relative to untreated control at 10 µM: Trypanosoma cruzi, read-out: percentage of cells infected by pre-treated trypomastigotes relative to untreated controls
Experimental: (§1) Human saphenous vein smooth muscle (HSVSM) cells are isolated from outgrowths of explants of unused portions of veins harvested for coronary artery bypass surgery as described previously by Warner et al., J. Exp. Med., 165, 1316-1331 (1987). The cells are maintained in DME medium containing 5.5 mM glucose, 25 mM HEPES and 10% FBS (Hy-Clone Laboratories,Logan, Utah). Trypanosoma cruzi Strain Y trypomastigotes are propagated as described previously by Libby et al., J. Clin. Invest., 77, 127-135 (1986), except that HSVSM cells are used in place of bovine aortic smooth muscle cells.
Test compounds are dissolved in 0.3 ml DMSO and brought to volume by dilution with serum-free DME medium. Solutions are sterilized by filtration through 0.22 μm filter units. Trypomastigotes (10^7 ml^-1) are harvested and washed twice in serum-free DME medium. Parasites are added to solutions of the test compounds to a final concentration of 10^6 ml^-1 and incubated for 3 hours at 37° C. in a 5% CO2 atmosphere. After incubation with the test compound, 0.1 ml of the parasite suspension (10^5 organisms) is diluted with 0.4 ml cell culture medium and added to a culture of HSVSM cells. After 16 hours, the HSVSM cells are washed to remove non-internalized trypomastigotes and resupplied with fresh culture medium. Infections are followed for 4-7 days by light microscopy.
Trypomastigotes were pre-incubated with a test compound or a prior art compound as described above. Results are expressed as the percentage of cells infected by pre-treated trypomastigotes relative to untreated controls.

trypomastigotes = test: Ongoing infection model in human smooth muscle cells infected with trypomastigotes; format: cell-based, Trypanosoma cruzi; details: compound incubated 16 hours, counted 5 days after initial infection, untreated 1.85 × 10^7
Experimental: as §1
The effects of the compounds of the present invention have also been tested in an ongoing infection model. […] The cells are then incubated for 48 hours after which time the test compounds are added to the cultures and incubated for 16 hours. After 16 hours, the treated culture media is replaced with drug-free fresh media and cell culture is continued for a further 24 hours. Levels of parasitemia in the treated and untreated cultures are then examined.
*Number of trypomastigotes/ml counted swimming above the HSVM cell
monolayer 5 days after initial infection.

[2] = target: trypanothione reductase from C. fasciculata (Crithidia fasciculata, UniProt P39040); test: Enzymatic reduction of compounds as substrates of trypanothione reductase (NADPH oxidation, cytochrome C coupled assay); format: biochemical; details: aerobic
Chain of trypanothione reductase from C. fasciculata (P39040 whole entry): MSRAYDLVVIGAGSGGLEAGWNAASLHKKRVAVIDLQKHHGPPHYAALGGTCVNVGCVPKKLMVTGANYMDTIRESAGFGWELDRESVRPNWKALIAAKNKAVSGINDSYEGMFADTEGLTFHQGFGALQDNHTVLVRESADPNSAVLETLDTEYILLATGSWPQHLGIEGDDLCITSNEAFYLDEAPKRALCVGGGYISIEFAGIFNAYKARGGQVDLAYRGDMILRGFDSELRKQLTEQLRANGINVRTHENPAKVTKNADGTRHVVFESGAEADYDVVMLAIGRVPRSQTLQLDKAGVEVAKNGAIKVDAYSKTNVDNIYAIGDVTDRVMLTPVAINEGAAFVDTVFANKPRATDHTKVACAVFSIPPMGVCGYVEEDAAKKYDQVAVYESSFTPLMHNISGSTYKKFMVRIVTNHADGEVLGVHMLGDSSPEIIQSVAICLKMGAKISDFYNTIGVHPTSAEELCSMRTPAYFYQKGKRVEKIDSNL
Experimental: FIG. 2 is a graph of the results of the enzymatic reduction of compounds C, D and E of the present invention and comparative prior art compounds as a function of substrate concentration. Relative rates were measured under aerobic conditions by coupling superoxide production to cytochrome C reduction as described.
Trypanothione disulfide reductase activity is assayed spectrophotometrically by monitoring substrate-dependent oxidation of NADPH at 340 nm. Alternatively, enzyme activity is monitored by coupling radical formation to cytochrome C reduction and measuring absorbance changes (ε550 =21 mM^-1). Absorbance changes are monitored on a spectrophotometer with a thermostated cuvette chamber. Enzyme concentration is measured spectrophotometrically using the extinction coefficient (ε464 =11.3 mM^-1, Shames et al., Biochemistry, 25, 3519-3526 (1986). Kinetic runs are carried out at 27° C. in 0.1M 4-(2-hydroxyethyl)1-piperazineethane sulfonic acid (HEPES) buffer, pH 7.8, containing 0.1 mM EDTA and 0.25 mM NADPH. Anaerobic measurements are performed in rubber stoppered cuvettes that have been flushed repeatedly with helium. All buffers and solutions used in the assays are treated in this manner. Additions to the cuvette are made with a microsyringe piercing the septum. […]

trypanothione reductase = trypanothione reductase (Crithidia fasciculata, UniProt P39040); test: Incubation of trypanothione reductase with compound under aerobic and anaerobic conditions, dialysis, then T(S)2 reductase assay; format: biochemical, C. fasciculata; details: 0.277778 h, pH 7.8, read-out: loss of T(S)2 reductase activity relative to the aerobic control
Chain of trypanothione reductase (P39040 whole entry): as above
Experimental: Trypanothione disulfide reductase activity is assayed spectrophotometrically by monitoring substrate-dependent oxidation of NADPH at 340 nm. Alternatively, enzyme activity is monitored by coupling radical formation to cytochrome C reduction and measuring absorbance changes (ε550 =21 mM^-1). Absorbance changes are monitored on a spectrophotometer with a thermostated cuvette chamber. Enzyme concentration is measured spectrophotometrically using the extinction coefficient (ε464 =11.3 mM^-1, Shames et al., Biochemistry, 25, 3519-3526 (1986). Kinetic runs are carried out at 27° C. in 0.1M 4-(2-hydroxyethyl)1-piperazineethane sulfonic acid (HEPES) buffer, pH 7.8, containing 0.1 mM EDTA and 0.25 mM NADPH. Anaerobic measurements are performed in rubber stoppered cuvettes that have been flushed repeatedly with helium. All buffers and solutions used in the assays are treated in this manner. Additions to the cuvette are made with a microsyringe piercing the septum.
Assays are carried out in 0.1M HEPES, pH 7.8, containing 1 mM EDTA, 0.15 mM […], 500 pmoles/ml trypanothione reductase and 10 μM nitrofuran VIII. Reactions are started by addition of enzyme (80 μl to a 2 ml assay). Sequential spectra (200-800 nm) are collected at 20 sec intervals using a UV/Vis spectrophotometer. At the end of the experiment, the assay mixtures are dialyzed and trypanothione reductase is assayed using 250 μM T(S)2. […]

[3] = 0.5 μM, 3 hours pre-incubation at 37° C., HSVSM cells
[4] = 1 μM, 3 hours pre-incubation at 37° C., HSVSM cells
[5] = 5 μM, 3 hours pre-incubation at 37° C., HSVSM cells
[6] = 10 μM, 3 hours pre-incubation at 37° C., HSVSM cells

Molecule: CC(CCC1=C(CCC(C)=NNC(=N)N)C(=O)c2ccccc2C1=O)=NNC(=N)N.Cl.Cl [Compound A, 2,3-Bis(3-(2-amidinohydrazono)butyl)-1,4-naphthoquinone dihydrochloride]
- percent of cells infected relative to untreated control at 0.5 µM [1, 3]: 14%
- percent of cells infected relative to untreated control at 1 µM [1, 4]: 0%
- percent of cells infected relative to untreated control at 5 µM [1, 5]: 0%
- percent of cells infected relative to untreated control at 10 µM [1, 6]: 0%
- Trypomastigotes/ml counted swimming above the HSVM cell monolayer (trypomastigotes; 1 μM): 4.10 × 10^7 Trypomastigotes/ml
- Trypomastigotes/ml counted swimming above the HSVM cell monolayer (trypomastigotes; 10 μM): 1.35 × 10^7 Trypomastigotes/ml

Molecule: NC(=O)N/N=C/c1ccc([N+](=O)[O-])o1 [nitrofurazone]
- trypanothione reductase-catalyzed reduction monitored by NADPH oxidation [2]: could be detected

Molecule: CC(CCC1=C(C)C(=O)c2ccccc2C1=O)=NNC(=N)N [Compound B, hydrochloride]
- percent of cells infected relative to untreated control at 0.5 µM [1, 3]: 100%
- percent of cells infected relative to untreated control at 1 µM [1, 4]: 100%
- percent of cells infected relative to untreated control at 5 µM [1, 5]: 21%
- percent of cells infected relative to untreated control at 10 µM [1, 6]: 8%

Molecule: N=C(NCCCN1CCN(CCCNC(=N)NN=Cc2ccc([N+](=O)[O-])o2)CC1)NN=Cc1ccc([N+](=O)[O-])o1 [Compound E, 2,2'-Bis(5-nitro-2-furanylmethylidene)-N,N'-[1,4-piperazinediylbis(3,1-propanediyl)]-bishydrazinecarboximidamide tetrahydrobromide]
- percent of cells infected relative to untreated control at 0.5 µM ([1]; 3 h): 100%
- percent of cells infected relative to untreated control at 1 µM ([1]; 3 h): 0%
- percent of cells infected relative to untreated control at 5 µM ([1]; 3 h): 0%
- percent of cells infected relative to untreated control at 10 µM ([1]; 3 h): 0%
- Trypomastigotes/ml counted swimming above the HSVM cell monolayer (trypomastigotes; 1 μM): 1.85 × 10^7 Trypomastigotes/ml
- Trypomastigotes/ml counted swimming above the HSVM cell monolayer (trypomastigotes; 10 μM): 2.85 × 10^7 Trypomastigotes/ml
- inhibition at 10 µM (trypanothione reductase): 93%

Molecule: CC1CS(=O)(=O)CCN1/N=C/c1ccc([N+](=O)[O-])o1 (stereo not drawn) [Nifurtimox, reference compound]
- percent of cells infected relative to untreated control at 0.5 µM ([1]; 3 h): 100%
- percent of cells infected relative to untreated control at 1 µM ([1]; 3 h): 100%
- percent of cells infected relative to untreated control at 5 µM ([1]; 3 h): 10%
- percent of cells infected relative to untreated control at 10 µM ([1]; 3 h): 4%
- trypanothione reductase-catalyzed reduction monitored by NADPH oxidation [2]: could be detected

Molecule: 2-(5-Nitro-2-furanylmethylidene)-N-[3-(4-methylpiperidin-1-yl)propyl]hydrazinecarboximidamide trihydrobromide [Compound D]
- percentage of cells infected by pre-treated trypomastigotes relative to untreated controls [1, 3]: 64%
- percentage of cells infected by pre-treated trypomastigotes relative to untreated controls [1, 4]: 35%
- percentage of cells infected by pre-treated trypomastigotes relative to untreated controls [1, 5]: 0%
- percentage of cells infected by pre-treated trypomastigotes relative to untreated controls [1, 6]: 0%
- Trypomastigotes/ml counted swimming above the HSVM cell monolayer (trypomastigotes; 1 μM): 1.80 × 10^7 Trypomastigotes/ml
- Trypomastigotes/ml counted swimming above the HSVM cell monolayer (trypomastigotes; 10 μM): < 2.00 × 10^4 Trypomastigotes/ml

Molecule: N=C(N)NN=Cc1ccc([N+](=O)[O-])o1 [Guanofuracin, reference compound]
- percent of cells infected relative to untreated control at 0.5 µM ([1]; 3 h): 100%
- percent of cells infected relative to untreated control at 1 µM ([1]; 3 h): 45%
- percent of cells infected relative to untreated control at 5 µM ([1]; 3 h): 0%
- percent of cells infected relative to untreated control at 10 µM ([1]; 3 h): 0%
